Data set [1] deals with Molp-8 cells. As to the kind of experiment: BCMA expression by flow cytometry after GSI incubation. The class given is cell-based. The conditions noted are these: 1 μM DAPT, 24 hrs, vs without.
In data set [2] the test system is NCI-H929 cells. The description is as above. It is filed as cell-based. The conditions noted are these: 1 μM DAPT, 24 hrs, vs without.
Data set [3] deals with Molp-8 cells. As to the kind of experiment: FcγRIII signaling surrogate assay (Promega ADCC reporter bioassay, CD16A-Jurkat effector cells). The class given is cell-based. The conditions noted are these: antibody dose titrations +/- GSI (DAPT), 6:1 effector-to-target ratio, overnight. The method, then: (§1) NCI-H929 or Molp-8 MM target cells were incubated with and without 1 μM DAPT for 24 hrs. […] FcγRIII signaling was determined using a surrogate assay as manufacturer describes (Promega ADCC reporter bioassay cat #G9302). Cells were bound with antibody dose titrations+/−GSI for 30 minutes at 37° C. CD16A-Jurkat effector cells were then added with a 6:1 effector-to-target cell ratio. After an overnight incubation, the assay was developed with Bio-Glo and relative luminescence units (RLU) were measured on an Envision plate reader. […] Enhanced signaling is the first step in the primary mechanism of action of SEA-BCMA. This signaling can translate to increased anti-MM cell lysis through ADCC.

Data set [4] relates to NCI-H929 cells. Described as above. It is filed as cell-based. Particulars: antibody dose titrations +/- GSI (DAPT), 6:1 effector-to-target ratio, overnight. The method, then:
as §1

Data set [5] concerns BCMA-expressing NCI-H929 cells. In words: NF-κB p65 activity ELISA of nuclear extract (TransAM NFκB Chemi p65). It is filed as cell-based. The method, then:
The secondary mechanism of action of SEA-BCMA is to block BCMA proliferative cell signaling. Increased BCMA from GSI treatment is expected to induce increased BCMA signaling. Therefore, the block of this enhanced signaling by SEA-BCMA was tested. BCMA-expressing NCI-H929 cells were serum-starved with and without 0.2 μM Nirogacestat (purchased from SelleckChem) for 16 hrs. Cells were then bound with and without 20 μg/mL SEA-BCMA and incubated with and without 1 μg/ml recombinant human APRIL (R&D Systems) for 20 minutes at 37° C. in the presence or absence of 0.2 μM Nirogacestat. 1 μg of nuclear extract was assayed in duplicate for NF-κB p65 activity by ELISA (TransAM NFκB Chemi p65, Active Motif).

A further data set relates to Molp-8 MM target cells. In words: ADCC 51Cr release assay with donor NK cells. The class given is cell-based. Particulars: SEA-BCMA titrations, 0.2 μM Nirogacestat vs without, NK:target 10:1, 4h, FcγRIII V/V donor. As for the experimental part:
Whether the enhanced FcγRIII signaling translated to increased lysis of MM target cells by SEA-BCMA was determined. Molp-8 MM target cells were incubated with and without 0.2 μM Nirogacestat (purchased from SelleckChem) for 24 hrs. Cells were then Na2 [^51Cr] O4 labeled and added to titrations of SEA-BCMA, or isotype antibody control. Effector cells, NK cells enriched from normal donor PBMC, were added at an effector-to-target cell ratio of 10:1 (50,000:5000). Donor NK cells were of the high affinity FcγRIII V/V genotype. The combination of antibodies, NK cells and target cells were incubated for 4h at 37° C. with and without Nirogacestat. The radioactivity released into the culture supernatant of lysed target cells was then measured and the percent specific cell lysis calculated. […] This is the primary of mechanism of action of SEA-BCMA and translates to specific enhanced anti-MM lysis. It is expected that this will translate to improvements in anti-MM activity in the clinic when SEA-BCMA is combined with GSIs.

The conditions of data set [6]: 100 mg BID dose; cited from earlier work.
The next data set concerns patients. Particulars: cited from earlier work.
For data set [7], the system named is Multiple myeloma cells. In words: ADCC with NK effector cells enriched from normal donor PBMC. It is filed as cell-based. Particulars: nirogacestat treated multiple myeloma cells combined with NK effector cells. The text has this: (§2) These pre-clinical data supported the combination of SEA-BCMA with nirogacestat in clinical studies.
A further data set concerns U266. In words: BCMA expression by flow cytometry after Nirogacestat incubation. The class given is cell-based. The conditions noted are these: 0.2 μM Nirogacestat, 24 hrs.
For data set [8], the system named is Multiple myeloma cells. As to the kind of experiment: BCMA expression after nirogacestat incubation. It is filed as cell-based. Particulars: 0.2 μM nirogacestat, 24 hours, vs without.
From the text: as §2

The next data set has as its target FcγRIII (Homo sapiens, UniProt P08637). In words: FcγRIII binding affinity versus fucosylated anti-BCMA antibodies. The conditions noted are these: in comparison to fucosylated anti-BCMA antibodies.
[9] abbreviates: patients receiving nirogacestat.

Values joined by “and” are separate entries in the source; they are usually repeats but may differ in a detail not shown here. Equal entries are not always repeated.

Sequence of FcγRIII (P08637 17-254): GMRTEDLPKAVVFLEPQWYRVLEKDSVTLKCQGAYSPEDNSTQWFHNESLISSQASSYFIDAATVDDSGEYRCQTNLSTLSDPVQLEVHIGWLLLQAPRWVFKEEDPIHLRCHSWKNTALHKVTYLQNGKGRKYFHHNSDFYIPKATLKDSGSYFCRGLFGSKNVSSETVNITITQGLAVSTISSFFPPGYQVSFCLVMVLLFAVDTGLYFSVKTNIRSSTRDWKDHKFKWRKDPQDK
Procedure for patients with RRMM: This study evaluated the safety and antitumor activity of SEA-BCMA in patients with RRMM.
The monotherapy dose-escalation portion of the trial was conducted in approximately 25 patients.
Enrollment in this study occurred on a cohort-by-cohort basis. Multiple cohorts were treated at each dose level, with a maximum of 4 patients treated per cohort. Decisions on dose escalation and subsequent cohort size were made in consultation with the safety monitoring committee (SMC) after completion of each cohort. […] In addition, as a precaution, for the first 2 patients in the study there was a 72-hour observation period before the next patient can be dosed. At dose levels above Dose Level 1, a 24-hour observation period was required after the first patient received their first dose of SEA-BCMA, prior to dosing subsequent patients at that dose level. […] Patients who were considered not evaluable for DLT during Cycle 1 were replaced. […] The MTD or optimal dose was estimated based on data from all patients across all evaluated doses.
SEA-BCMA was initially administered once every 2 weeks (q2wk) in 4-week cycles at the planned doses shown in Table 2; a dosing interval of every 4 weeks (q4wk) was explored.
To further characterize the safety and antitumor activity of SEA-BCMA, an expansion cohort of up to approximately 40 patients were enrolled.
The DLT-evaluation period was the first cycle of treatment. […] In the event of a Grade 3 IRR in ≥20% of patients (i.e., 2 or more in the first 10 patients), all subsequent patients will require premedication and/or modification of infusion approach per the recommendation of the SMC.

For the compound `C[C@H](NC(=O)Cc1cc(F)cc(F)c1)C(=O)N[C@H](C(=O)OC(C)(C)C)c1ccccc1` [DAPT], the BCMA expression result with Molp-8 cells [1] and with NCI-H929 cells [2] was “increased BCMA expression” each time. Also, the FcγRIII signaling entry in the data set on Molp-8 cells [3] and with NCI-H929 cells [4] was “increased FcγRIII signaling” throughout.
As to `CCC[C@H](N[C@H]1CCc2cc(F)cc(F)c2C1)C(=O)Nc1cn(C(C)(C)CNCC(C)(C)C)cn1` [nirogacestat, (S)-2-(((S)-6,8-difluoro-1,2,3,4-tetrahydronaphthalen-2-yl)amino)-N-(1-(2-methyl-1-(neopentylamino)propan-2-yl)-1H-imidazol-4-yl)pentanamide], the “NF-κB p65 signaling (RLU)” value in data set [5] (0.2 μM Nirogacestat 16 hrs serum-starved, +/- 1 μg/ml APRIL 20 minutes) is “increased NF-κB signaling”. For the same compound, the “ADCC (percent specific cell lysis)” value in the data set on Molp-8 MM target cells was “Increased ADCC”. In data set [6], the Cmin at steady-state was 232 ng/mL and 471 nM. Besides, the Events of diarrhea entry with patients (setting [9]) is “commonly reported”. The “Events of skin rash” value with patients (setting [9]) is reported as “reported”. Moreover, the Follicular cysts result in the data set on patients (phase 2 study in desmoid patients conducted by the NCI (O'Sullivan Coyne, 2018)) is on record as “observed”. Moreover, the ADCC entry in the data set with Multiple myeloma cells [7] is listed as “increased ADCC”. Moreover, the BCMA expression entry with U266 and with Multiple myeloma cells [8] was “increased BCMA expression” throughout.
On to “SEA-BCMA: non-fucosylated monoclonal anti-BCMA antibody, heavy chain SEQ ID NO: 13, light chain SEQ ID NO: 15”, for which the “Block of NF-κB signaling increased by Nirogacestat” value in [5] (20 μg/mL SEA-BCMA, 0.2 μM Nirogacestat, +/- 1 μg/ml APRIL) was “partially blocked”. Besides, the FcγRIII binding affinity result in the data set with FcγRIII is reported as “enhanced”. The “Delayed-onset infusion-related reactions (IRRs)” value in the data set with patients with RRMM (dose escalation cohort) was “no instances”. In addition, in the data set with patients with RRMM (high doses, e.g. 800 mg or 1600 mg per dose, initial results), the “Safety profile at high doses” value is given as “tolerable safety profile”. In the data set on patients with RRMM (human, in vivo), the “MTD in dose escalation” value was “without exceeding MTD”.

The record behind these values is US20240343819A1, “METHODS OF TREATING MULTIPLE MYELOMA” (Seagen Inc., priority 2021, published 2024).
